Key:
[1] = Determination of log P values by HPLC on reversed-phase column (formic acid method); assay type: physicochemical; settings: reversed-phase HPLC column (C 18), pH 3.4, HPLC, reversed-phase C 18, acidic range (pH 3.4), formic acid eluents, 55° C.; read-out: logP (HCOOH)
Method: 1) Description of Method for Determining the Log P Values (Formic Acid Method)
The log P values reported in the table were determined according to EEC-Directive 79/831 Annex V.A8 by HPLC (High Performance Liquid Chromatography) on a reversed-phase column (C 18). […]
Eluent A: acetonitrile+1 ml of formic acid/liter. Eluent B: water+0.9 ml of formic acid/liter.
Gradient: from 10% eluent A/90% eluent B to 95% eluent A/5% eluent B in 4.25 min
The calibration was effected with unbranched alkan-2-ones (with 3 to 16 carbon atoms), whose log P values are known (determination of the log P values on the basis of the retention times by linear interpolation between two successive alkanones). The lambda-max values were determined with reference to the UV spectra from 200 nm to 400 nm in the maxima of the chromatographic signals.

[2] = test system: green peach aphid (Myzus persicae); assay: Myzus test; assay type: in vivo; settings: application rate 500 g/ha, spray on Chinese cabbage leaf slices, read-out: efficacy (aphids killed)
Method: • Solvent: 78.0 parts by weight of acetone • 1.5 parts by weight of dimethylformamide • Emulsifier: 0.5 part by weight of alkylaryl polyglycol ether
To produce an appropriate active ingredient formulation, 1 part by weight of active ingredient is mixed with the amounts of solvent and emulsifier specified and the concentrate is diluted to the desired concentration with emulsifier-containing water.
Chinese cabbage leaf slices (Brassica pekinensis) infested by all stages of the green peach aphid (Myzus persicae) are sprayed with an active ingredient formulation of the desired concentration.
After the desired time, the efficacy in % is determined 100% means that all aphids have been killed; 0% means that no aphids have been killed.

| SMILES | chromatographic logP [1] | pest or weed control at 500 g/ha [2] [%] |
| --- | --- | --- |
| Cn1nc(-c2cccnc2)cc1C(=O)NCC(F)(F)F [Compound 31] | 1.04 | ≥ 70 |
| O=C(NCC(F)(F)F)c1nnc(-c2cccnc2)s1 [Compound 32] | 1.53 | ≥ 70 |
| O=C(NCC(F)(F)F)c1cc(-c2cccnc2)n[nH]1 [Compound 33] | 0.72 | ≥ 70 |
| Cc1nc(-c2cccnc2)sc1C(=O)NC1(C(F)(F)F)CC1 [Compound 34] | 1.84 | ≥ 70 |
| Cc1nc(-c2cccnc2)sc1C(=O)N(C)CC(C)(F)F [Compound 35] | 1.65 | ≥ 70 |
| Cc1nc(-c2cccnc2)sc1C(=O)NCC(C)(F)F [Compound 36] | 1.59 | ≥ 70 |
| Cc1nc(-c2cccnc2)sc1C(=O)NC(C)c1ncccn1 (centres unmarked) [Compound 37] | 1.24 | ≥ 70 |
| Cc1nc(CNC(=O)c2sc(-c3cccnc3)nc2C)no1 [Compound 38] | 1.21 | ≥ 70 |
| Cc1nc(-c2cccnc2)sc1C(=O)NCC(F)(F)F [Compound 39] | 1.63 | ≥ 70 |
| Cc1nc(-c2cccnc2)sc1C(=O)NCc1ncccn1 [Compound 40] | 1.05 | ≥ 70 |
| Cc1nc(-c2cccnc2)sc1C(=O)N(C)CC(F)F [Compound 41] | 1.48 | ≥ 70 |
| Cc1nc(-c2cccnc2)sc1C(=O)N(C)CC(F)(F)F [Compound 42] | 1.81 | ≥ 70 |
| Cc1nc(-c2cccnc2)sc1C(=O)N(C)CC(F)(F)C(F)F [Compound 43] | 1.69 | ≥ 70 |
| CSCCNC(=O)c1sc(-c2cccnc2)nc1C [Compound 44] | 1.54 | ≥ 70 |
| CSCC(C)(C)N(C)C(=O)c1sc(-c2cccnc2)nc1C [Compound 45] | 2.21 | ≥ 70 |
| CN(C)C(=O)c1cnc(-c2cccnc2)s1 [Compound 46] | 0.91 | ≥ 70 |
| Cc1nc(-c2cccnc2)sc1C(=O)N(C)C(C)(C)C#N [Compound 47] | 1.41 | ≥ 70 |
| Cc1nc(-c2cccnc2)sc1C(=O)NC(C)C1=NOCCO1 (centres unmarked) [Compound 49] | 1.27 | ≥ 70 |
| Cc1nc(-c2cccnc2)sc1C(=O)NCC1COCCO1 (centres unmarked) [Compound 50] | 0.8 | ≥ 70 |
| COC(=O)C1(NC(=O)c2sc(-c3cccnc3)nc2C)CC1 [Compound 51] | 1.3 | ≥ 70 |
| Cc1nc(-c2cccnc2)sc1C(=O)NC(C)(C)C#N [Compound 52] | 1.48 | ≥ 70 |
| Cc1nc(-c2cccnc2)sc1C(=O)NCCF [Compound 53] | 1.11 | ≥ 70 |

| SMILES | chromatographic logP [1] | pest or weed control at 500 g/ha [2] [%] |
| --- | --- | --- |
| Cc1nc(-c2cccnc2)sc1C(=O)N[C@H]1C[C@@H]1F [Compound 54] | 1.16 | ≥ 70 |
| CCNC(=O)c1cnc(-c2cccnc2)s1 [Compound 55] | 1.03 | ≥ 70 |
| CSC[C@H](C)NC(=O)c1sc(-c2cccnc2)nc1C [Compound 56] | 1.68 | ≥ 70 |
| Cc1nc(-c2cccnc2)sc1C(=O)NCC(F)F [Compound 57] | 1.34 | ≥ 70 |
| Cc1nc(-c2cccnc2)sc1C(=O)N(CC(F)(F)F)C(=O)C1(F)CC1 [Compound 58] | 2.77 | ≥ 70 |
| CNC(=O)c1cnc(-c2cccnc2)s1 [Compound 59] | 0.62 | ≥ 70 |
| Cc1nc(-c2cccnc2)sc1C(=O)NCc1ccon1 [Compound 60] | 1.14 | ≥ 70 |
| CCN(C)C(=O)c1cnc(-c2cccnc2)s1 [Compound 61] | 1.23 | ≥ 70 |
| Cc1nc(-c2cccnc2)sc1C(=O)NCC1OCC(C)O1 (centres unmarked) [Compound 62] | 1.34 | ≥ 70 |
| Cc1nc(-c2cccnc2)sc1C(=O)NC(C#N)C(C)C (centres unmarked) [Compound 63] | 1.85 | ≥ 70 |
| COC(OC)C(C)NC(=O)c1sc(-c2cccnc2)nc1C (centres unmarked) [Compound 65] | 1.45 | ≥ 70 |
| Cc1nc(-c2cccnc2)sc1C(=O)NC1(C#N)CC1 [Compound 66] | 1.2 | ≥ 70 |
| CCN(CC)C(=O)c1cnc(-c2cccnc2)s1 [Compound 67] | 1.46 | ≥ 70 |
| COCN(CC(F)(F)F)C(=O)c1sc(-c2cccnc2)nc1C [Compound 69] | 2.06 | ≥ 70 |
| COC1(NC(=O)c2cnc(-c3cccnc3)s2)CC1 [Compound 70] | 1.14 | ≥ 70 |
| CSC[C@H](C)N(C)C(=O)c1sc(-c2cccnc2)nc1C [Compound 71] | 1.71 | ≥ 70 |
| NC(=O)c1cnc(-c2cccnc2)s1 [Compound 72] | 0.29 | ≥ 70 |
| CSCC(C)(C)NC(=O)c1sc(-c2cccnc2)nc1C [Compound 73] | 2.05 | ≥ 70 |
| Cc1nccc(CNC(=O)c2cnc(-c3cccnc3)s2)n1 [Compound 74] | 0.94 | ≥ 70 |
| Cc1nc(-c2cccnc2)sc1C(=O)NCC(C)F (centres unmarked) [Compound 75] | 1.34 | ≥ 70 |
| Cc1cnc(CNC(=O)c2sc(-c3cccnc3)nc2C)cn1 [Compound 77] | 1.15 | ≥ 70 |
| Cc1nc(-c2ccc[n+]([O-])c2)sc1C(=O)NCC(F)(F)F [Compound 78] | 1.31 | ≥ 70 |

| SMILES | chromatographic logP [1] | pest or weed control at 500 g/ha [2] [%] |
| --- | --- | --- |
| N#CCNC(=O)c1cnc(-c2cccnc2)s1 [Compound 79] | 0.88 | ≥ 70 |
| Cc1nc(-c2cccnc2)sc1C(=O)N(C)CC(C)F (centres unmarked) [Compound 80] | 1.5 | ≥ 70 |
| O=C(NCc1ccncn1)c1cnc(-c2cccnc2)s1 [Compound 81] | 0.73 | ≥ 70 |
| Cc1nc(-c2cccnc2)sc1C(=O)NCC(F)(F)C(F)F [Compound 82] | 1.75 | ≥ 70 |
| Cc1nc(-c2cccnc2)sc1C(=O)N[C@@H]1C[C@@H]1F [Compound 83] | 1.16 | ≥ 70 |
| COC(=O)C(C)NC(=O)c1sc(-c2cccnc2)nc1C (centres unmarked) [Compound 84] | 1.36 | ≥ 70 |
| Cc1nc(-c2cccnc2)sc1C(=O)N(C)CCF [Compound 85] | 1.23 | ≥ 70 |
| Cc1nc(-c2cccnc2)sc1C(=O)NC(C)CC(F)(F)F (centres unmarked) [Compound 86] | 1.94 | ≥ 70 |
| Cc1nc(-c2cccnc2)sc1C(=O)NC(C)c1ccccn1 (centres unmarked) [Compound 87] | 1.1 | ≥ 70 |
| CCOC1(NC(=O)c2cnc(-c3cccnc3)s2)CC1 [Compound 88] | 1.31 | ≥ 70 |
| CCC(=O)N(CC(F)(F)F)C(=O)c1sc(-c2cccnc2)nc1C [Compound 89] | 2.61 | ≥ 70 |
| Cc1nc(-c2cccnc2)sc1C(=O)NCc1ccccn1 [Compound 90] | 0.78 | ≥ 70 |
| Cc1nc(-c2cccnc2)sc1C(=O)N(C)Cc1ncccn1 [Compound 91] | 1.02 | ≥ 70 |
| Cc1nc(-c2cccnc2)sc1C(=O)NCC1OCCCO1 [Compound 92] | 1.27 | ≥ 70 |
| Cc1nc(-c2cccnc2)sc1C(=O)N(C)Cc1ccccn1 [Compound 93] | 1.19 | ≥ 70 |
| Cc1nc(-c2cccnc2)sc1C(=O)NC(C)(C#N)C1CC1 (centres unmarked) [Compound 94] | 1.76 | ≥ 70 |
| Cc1cc(C)nc(CNC(=O)c2sc(-c3cccnc3)nc2C)n1 [Compound 95] | 1.24 | ≥ 70 |
| Cc1nc(-c2cccnc2)sc1C(=O)NCC(F)(Cl)Cl [Compound 96] | 1.98 | ≥ 70 |
| Cc1nc(-c2cccnc2)sc1C(=O)NC(C)CF (centres unmarked) [Compound 97] | 1.42 | ≥ 70 |
| Cc1cc(CNC(=O)c2sc(-c3cccnc3)nc2C)no1 [Compound 98] | 1.45 | ≥ 70 |
